The values that follow are results of earlier work, collected in patent publication US20170239455A1 (priority 2014, published 2017).

The data set deals with virus Ebola.

In the case of `II` [molecular iodine], the “effectiveness against the virus” value is recorded as “effective”.
